Measurements reported in PMC9555642 (PLoS ONE, 2022).

Assays:
Kv4.3 = biological target: T1, Kv4.3 (Homo sapiens, UniProt Q9UK17); test: Cardiovascular ion channel panel, SyncroPatch 384PE patch clamp; assay type: cell-based; conditions: CHO K1 cell line, room temperature, 6 point cumulative assay
T1 construct: expressed in transfected cells; host or cells: Chinese hamster ovary K1 cell line
T1 sequence (Q9UK17 1-655): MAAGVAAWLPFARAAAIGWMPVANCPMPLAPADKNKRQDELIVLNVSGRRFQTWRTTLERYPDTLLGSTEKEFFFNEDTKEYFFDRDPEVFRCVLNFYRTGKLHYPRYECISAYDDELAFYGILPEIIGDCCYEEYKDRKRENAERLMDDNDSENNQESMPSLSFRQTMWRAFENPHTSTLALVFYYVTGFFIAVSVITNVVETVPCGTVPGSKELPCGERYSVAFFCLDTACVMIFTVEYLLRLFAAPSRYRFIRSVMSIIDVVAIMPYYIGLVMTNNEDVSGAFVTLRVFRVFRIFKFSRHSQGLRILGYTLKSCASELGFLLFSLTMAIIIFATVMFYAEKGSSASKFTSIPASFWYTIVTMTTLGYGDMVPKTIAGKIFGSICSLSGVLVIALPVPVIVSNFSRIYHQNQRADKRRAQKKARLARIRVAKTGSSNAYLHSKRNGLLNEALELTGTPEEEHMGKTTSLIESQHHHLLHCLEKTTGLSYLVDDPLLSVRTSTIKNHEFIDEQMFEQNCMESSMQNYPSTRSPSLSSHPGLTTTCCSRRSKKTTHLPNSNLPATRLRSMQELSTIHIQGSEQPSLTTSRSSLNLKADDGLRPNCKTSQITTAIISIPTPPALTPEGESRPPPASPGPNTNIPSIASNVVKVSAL

HDAC9 = biological target: T2, HDAC9 (Homo sapiens, UniProt Q9UKV0); test: HDAC enzymatic activity (Eurofins); assay type: biochemical; conditions: Class IIA; ACY-1083 mean of two separate measurements, Ricolinostat and Tubastatin A one measurement
T2 construct: purchased Eurofins Pharma Discovery Services 2611

HDAC6 = biological target: T3, HDAC6 (Homo sapiens, UniProt Q9UBN7); test: HDAC enzymatic activity (Eurofins); assay type: biochemical; conditions: Class IIB; ACY-1083 mean of two separate measurements, Ricolinostat and Tubastatin A one measurement
T3 sequence (Q9UBN7 1-1215): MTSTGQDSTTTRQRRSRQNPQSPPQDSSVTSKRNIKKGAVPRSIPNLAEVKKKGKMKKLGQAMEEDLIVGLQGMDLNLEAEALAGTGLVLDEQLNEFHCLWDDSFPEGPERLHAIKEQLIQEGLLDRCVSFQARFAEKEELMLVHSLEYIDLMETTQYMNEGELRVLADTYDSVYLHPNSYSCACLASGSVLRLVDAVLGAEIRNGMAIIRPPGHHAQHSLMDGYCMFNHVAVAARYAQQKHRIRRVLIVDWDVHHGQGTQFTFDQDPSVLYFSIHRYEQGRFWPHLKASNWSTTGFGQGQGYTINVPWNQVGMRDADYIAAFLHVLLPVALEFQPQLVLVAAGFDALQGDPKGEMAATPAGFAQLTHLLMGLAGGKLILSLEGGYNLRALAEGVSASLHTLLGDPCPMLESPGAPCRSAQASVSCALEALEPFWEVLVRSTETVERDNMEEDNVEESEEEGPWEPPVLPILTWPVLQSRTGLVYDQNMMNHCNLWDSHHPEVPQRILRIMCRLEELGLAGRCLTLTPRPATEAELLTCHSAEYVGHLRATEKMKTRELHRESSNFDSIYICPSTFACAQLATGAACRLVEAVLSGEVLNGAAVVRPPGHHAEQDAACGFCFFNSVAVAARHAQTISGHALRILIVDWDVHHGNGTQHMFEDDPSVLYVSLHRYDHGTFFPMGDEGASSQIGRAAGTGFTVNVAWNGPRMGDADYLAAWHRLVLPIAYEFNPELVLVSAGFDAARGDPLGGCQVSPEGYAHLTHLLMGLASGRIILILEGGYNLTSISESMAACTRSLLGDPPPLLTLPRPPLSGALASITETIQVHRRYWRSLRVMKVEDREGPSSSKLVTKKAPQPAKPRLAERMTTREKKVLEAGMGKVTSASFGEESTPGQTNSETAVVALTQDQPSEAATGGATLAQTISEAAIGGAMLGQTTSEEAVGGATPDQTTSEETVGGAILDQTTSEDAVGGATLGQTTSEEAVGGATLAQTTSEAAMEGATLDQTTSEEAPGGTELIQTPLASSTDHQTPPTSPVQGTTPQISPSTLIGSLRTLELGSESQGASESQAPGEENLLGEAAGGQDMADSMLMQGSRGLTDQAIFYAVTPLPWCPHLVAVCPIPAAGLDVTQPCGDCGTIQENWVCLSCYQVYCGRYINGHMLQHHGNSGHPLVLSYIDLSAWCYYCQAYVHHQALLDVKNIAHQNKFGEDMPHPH

COPD HBEC ALI cultures = test: Paracellular permeability (FITC-dextran) in unchallenged ALI cultures; assay type: cell-based, human; conditions: 10 μM basolaterally for eight days, no challenge, four COPD donors, p = 0.0023
Method: Passage one cells were seeded into T75 cell culture flasks (250,000 cells/flask) and expanded in PneumaCult ExPlus medium (StemCell Technologies, Vancouver, Canada) at 37°C, 5% CO2. Once cells reached 70% confluency, they were dissociated with TrypLE Express dissociation media (Thermo Fisher Scientific, Waltham, USA) and frozen at -150°C in ExPlus with 10% DMSO. Passage two cells were thawed and seeded (20,000 cells/membrane) into 24-well HTS Transwell plates (Corning, Wiesbaden, Germany) for air-liquid interface (ALI) culturing. Cells were expanded in ExPlus medium until >50% confluent (four days). Apical medium was then removed, and basolateral medium was replaced with PneumaCult ALI medium (StemCell Technologies). Medium was changed three times per week during a four-week long differentiation phase.
The paracellular permeability was determined by using fluorescein isothiocyanate labeled 4kD-dextran (Sigma-Aldrich, St. Louis, USA). 18 hours after addition of 0.2 mg FITC-dextran in 200 μL medium to the apical side of the ALI cultures, the fluorescence in the basolateral medium was measured using PHERAstar FSX (excitation 485 nm and emission 520 nm) (BMG LABTECH, Ortenberg, Germany). The time point was chosen for optimal window in the assays as well as practical reasons and has been kept consistent in between different stimulations throughout this work. […]

T2 sequence (Q9UKV0 whole entry): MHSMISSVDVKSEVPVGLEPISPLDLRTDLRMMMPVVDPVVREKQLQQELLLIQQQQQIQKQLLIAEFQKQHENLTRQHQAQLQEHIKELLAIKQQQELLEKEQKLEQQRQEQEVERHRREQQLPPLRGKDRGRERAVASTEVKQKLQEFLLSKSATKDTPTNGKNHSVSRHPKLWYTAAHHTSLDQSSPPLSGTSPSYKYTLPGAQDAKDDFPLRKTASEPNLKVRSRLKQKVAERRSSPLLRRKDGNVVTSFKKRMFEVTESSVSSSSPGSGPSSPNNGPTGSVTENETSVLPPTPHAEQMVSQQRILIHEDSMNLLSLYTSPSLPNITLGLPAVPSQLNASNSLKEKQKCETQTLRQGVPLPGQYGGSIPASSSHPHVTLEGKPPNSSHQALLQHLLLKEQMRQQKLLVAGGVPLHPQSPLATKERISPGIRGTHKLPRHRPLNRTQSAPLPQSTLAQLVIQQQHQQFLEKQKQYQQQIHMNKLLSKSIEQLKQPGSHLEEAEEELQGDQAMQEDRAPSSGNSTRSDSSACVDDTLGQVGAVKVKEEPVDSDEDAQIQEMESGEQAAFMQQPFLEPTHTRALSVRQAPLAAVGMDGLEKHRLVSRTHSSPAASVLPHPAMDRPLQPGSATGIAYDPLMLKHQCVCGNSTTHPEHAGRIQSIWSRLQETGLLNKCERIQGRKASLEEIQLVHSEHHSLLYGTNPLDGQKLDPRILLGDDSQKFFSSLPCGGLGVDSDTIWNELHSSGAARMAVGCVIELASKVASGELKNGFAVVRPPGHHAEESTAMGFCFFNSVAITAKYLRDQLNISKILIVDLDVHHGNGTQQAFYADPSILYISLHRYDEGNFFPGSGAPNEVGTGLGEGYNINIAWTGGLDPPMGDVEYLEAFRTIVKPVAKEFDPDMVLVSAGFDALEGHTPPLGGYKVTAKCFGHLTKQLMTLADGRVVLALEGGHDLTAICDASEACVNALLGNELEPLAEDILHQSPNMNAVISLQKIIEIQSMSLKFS

- IC50 (HDAC9): 19.3 µM
- IC50 (HDAC6): < 0.01 µM
- passage of FITC-dextran (paracellular permeability) (COPD HBEC ALI cultures): significantly reduced
Substance: ACY-1083
- activity on Kv4.3 (Kv4.3): > 30 µM
